The target in the test is CFTR-mediated chloride transport (Homo sapiens, UniProt P13569). It is filed as cell-based. The conditions noted are these: enteroid cells incubated with test compound 18-24 hours, acute 10 μM forskolin and 300 nM Compound III; for Max. Activity: % of chloride transport with 3 μM Compound A, 3 μM Compound II and 300 nM acute Compound III triple combination control. As for the experimental part: Base medium (ADF+++) consisted of Advanced DMEM/Ham's F12, 2 mM Glutamax, 10 mM HEPES, […] penicillin/streptomycin.
Intestinal enteroid maintenance medium (IEMM) consisted of ADF+++, 1× B27 supplement, 1× N2 supplement, 1.25 mM N-acetyl cysteine, 10 mM Nicotinamide, 50 ng/mL hEGF, 10 nM Gastrin, 1 μg/mL hR-spondin-1, 100 ng/mL hNoggin, TGF-b type 1 inhibitor A-83-01, 100 μg/mL Primocin, 10 μM P38 MAPK inhibitor SB202190.
Bath 1 Buffer consisted of 1 mM MgCl2, 160 mM NaCl, 4.5 mM KCl, 10 mM HEPES, 10 mM Glucose, 2 mM CaCl2).
Chloride Free Buffer consisted of 1 mM Magnesium Gluconate, 2 mM Calcium Gluconate, 4.5 mM Potassium Gluconate, 160 mM Sodium Gluconate, 10 mM HEPES, 10 mM Glucose.
Bath1 Dye Solution consisted of Bath 1 Buffer, 0.04% Pluronic F127, 20 μM Methyl Oxonol, 30 μM CaCCinh-A01, 30 μM Chicago Sky Blue.
Chloride Free Dye Solution consisted of Chloride Free Buffer, 0.04% Pluronic F127, 20 μM Methyl Oxonol, 30 μM CaCCinh-A01, 30 μM Chicago Sky Blue.
Chloride Free Dye Stimulation Solution consisted of Chloride Free Dye Solution, 10 μM forskolin, 100 μM IBMX, and 300 nM Compound III.
Human intestinal epithelial enteroid cells were obtained from the Hubrecht Institute for Developmental Biology and Stem Cell Research, Utrecht, The Netherlands and expanded in T-Flasks as previously described (Dekkers J F, Wiegerinck C L, de Jonge H R, Bronsveld I, Janssens H M, de Winter-de Groot K M, Brandsma A M, de Jong N W M, Bijvelds M J C, Scholte B J, Nieuwenhuis E E S, van den Brink S, Clevers H, van der Ent C K, Middendorp S and M Beekman J M. A functional CFTR assay using primary cystic fibrosis intestinal organoids. Nat Med. 2013 July; 19(7):939-45).
Cells were recovered in cell recovery solution, collected by centrifugation at 650 rpm for 5 min at 4° C., resuspended in TryPLE and incubated for 5 min at 37° C. Cells were then collected by centrifugation at 650 rpm for 5 min at 4° C. and resuspended in IEMM containing 10 μM ROCK inhibitor (RI) (trans-4-[(1R)-1-aminoethyl]-N-4-pyridinylcyclohexanecarboxamide). The cell suspension was passed through a 40 μm cell strainer and resuspended at 1×10^6 cells/mL in IEMM containing 10 μM RI. Cells were seeded at 5000 cells/well into multi-well plates and incubated for overnight at 37° C., 95% humidity and 5% CO2 prior to assay.
Enteroid cells were incubated with test compound in IEMM for 18-24 hours at 37° C., 95% humidity and 5% CO2. Following compound incubations, a membrane potential dye assay was employed using a FLIPR Tetra to directly measure the potency and efficacy of the test compound on CFTR-mediated chloride transport following acute addition of 10 μM forskolin and 300 nM Compound III. Briefly, cells were washed 5 times in Bath 1 Buffer. Bath 1 Dye Solution was added and the cells were incubated for 25 min at room temperature. Following dye incubation, cells were washed 3 times in Chloride Free Dye Solution. Chloride transport was initiated by addition of Chloride Free Dye Stimulation Solution and the fluorescence signal was read for 15 min. The CFTR-mediated chloride transport for each condition was determined from the AUC of the fluorescence response to acute forskolin and 300 nM Compound III stimulation. Chloride transport was then expressed as a percentage of the chloride transport following treatment with 3 μM Compound A, 3 μM Compound II and 300 nM acute Compound III triple combination control (% Activity).

CFTR-mediated chloride transport, sequence (P13569 whole entry, looked up): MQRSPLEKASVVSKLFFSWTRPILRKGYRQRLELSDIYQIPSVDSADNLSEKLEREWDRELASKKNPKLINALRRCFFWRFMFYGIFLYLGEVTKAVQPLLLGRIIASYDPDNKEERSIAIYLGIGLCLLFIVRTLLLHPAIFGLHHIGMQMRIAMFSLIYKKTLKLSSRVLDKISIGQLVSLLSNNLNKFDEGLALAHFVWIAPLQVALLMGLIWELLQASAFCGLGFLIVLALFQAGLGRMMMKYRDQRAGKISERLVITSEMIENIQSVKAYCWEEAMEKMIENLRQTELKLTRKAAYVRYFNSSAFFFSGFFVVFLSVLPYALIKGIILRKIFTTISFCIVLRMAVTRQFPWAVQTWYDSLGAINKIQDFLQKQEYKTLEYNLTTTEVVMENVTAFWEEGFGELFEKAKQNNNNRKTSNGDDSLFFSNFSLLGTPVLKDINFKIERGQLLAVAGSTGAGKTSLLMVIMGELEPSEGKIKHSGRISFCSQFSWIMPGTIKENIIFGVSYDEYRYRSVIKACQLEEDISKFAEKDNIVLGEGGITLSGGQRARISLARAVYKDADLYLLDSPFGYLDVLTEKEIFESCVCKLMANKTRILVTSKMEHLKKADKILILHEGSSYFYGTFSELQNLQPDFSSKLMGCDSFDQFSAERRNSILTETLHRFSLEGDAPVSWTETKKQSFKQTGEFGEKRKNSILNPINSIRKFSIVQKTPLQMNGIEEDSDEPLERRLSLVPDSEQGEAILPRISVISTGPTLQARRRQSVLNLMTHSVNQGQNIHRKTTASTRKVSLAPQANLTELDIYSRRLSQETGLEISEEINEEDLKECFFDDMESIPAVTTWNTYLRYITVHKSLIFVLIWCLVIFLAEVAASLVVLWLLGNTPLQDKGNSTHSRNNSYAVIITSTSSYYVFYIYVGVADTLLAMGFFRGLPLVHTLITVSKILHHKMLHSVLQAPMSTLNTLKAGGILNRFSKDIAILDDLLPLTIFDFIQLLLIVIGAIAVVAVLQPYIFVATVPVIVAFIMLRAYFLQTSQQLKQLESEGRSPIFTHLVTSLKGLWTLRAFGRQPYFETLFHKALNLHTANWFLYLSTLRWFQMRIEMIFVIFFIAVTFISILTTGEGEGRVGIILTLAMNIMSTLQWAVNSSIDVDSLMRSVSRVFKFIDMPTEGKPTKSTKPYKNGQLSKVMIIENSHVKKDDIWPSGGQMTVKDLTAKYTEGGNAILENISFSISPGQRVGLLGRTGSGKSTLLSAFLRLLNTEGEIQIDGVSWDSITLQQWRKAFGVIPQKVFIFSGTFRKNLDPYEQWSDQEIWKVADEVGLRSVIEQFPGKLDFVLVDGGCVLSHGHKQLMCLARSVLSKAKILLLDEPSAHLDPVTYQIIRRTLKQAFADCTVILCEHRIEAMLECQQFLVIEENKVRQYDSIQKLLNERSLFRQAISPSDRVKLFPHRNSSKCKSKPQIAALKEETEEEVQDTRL

Take `CC1(C)C[C@H]2CCCCc3cccc(c3)S(=O)(=O)NC(=O)c3ccc(-n4ccc(OCCC5(C(F)(F)F)CC5)n4)nc3N1C2` (single isomer, unassigned) [Compound 57, 12,12-dimethyl-8-(3-{2-[1-(trifluoromethyl)cyclopropyl]ethoxy}-1H-pyrazol-1-yl)-2λ^6-thia-3,9,11-triazatetracyclo[17.3.1.111,14.05,10]tetracosa-1(22),5,7,9,19(23),20-hexaene-2,2,4-trione]: the EC50 (in general, the concentration at which the effect is half-maximal) is less than 1 µM and the “Max. Activity” value is listed as “++ (++ is 30-60%)”.
On to `C[C@@H]1CC[C@H]2CN(c3nc(-n4ccc(OCCC5(C(F)(F)F)CC5)n4)ccc3C(=O)NS(=O)(=O)c3cccc(n3)N1)C(C)(C)C2` (single isomer, unassigned) [Compound 58, 12,12,17-trimethyl-8-(3-{2-[1-(trifluoromethyl)cyclopropyl]ethoxy}-1H-pyrazol-1-yl)-2λ^6-thia-3,9,11,18,23-pentaazatetracyclo[17.3.1.111,14.05,10]tetracosa-1(23),5(10),6,8,19,21-hexaene-2,2,4-trione], for which the EC50 is less than 1 µM and the “Max. Activity” value is recorded as “+ (+ is <30%)”.
Take `C[C@@H]1CC[C@H]2CN(c3nc(-n4ccc(OCCC5(C(F)(F)F)CC5)n4)ccc3C(=O)NS(=O)(=O)c3cccc(n3)N1)C(C)(C)C2` (single isomer, unassigned) [Compound 59, 12,12,17-trimethyl-8-(3-{2-[1-(trifluoromethyl)cyclopropyl]ethoxy}-1H-pyrazol-1-yl)-2λ^6-thia-3,9,11,18,23-pentaazatetracyclo[17.3.1.111,14.05,10]tetracosa-1(23),5(10),6,8,19,21-hexaene-2,2,4-trione]: the EC50 is less than 1 µM and the “Max. Activity” value is on record as “+++ (+++ is >60%)”.
On to `C[C@@H]1CC[C@H]2CN(c3nc(-n4ccc(OCCC5(C(F)(F)F)CC5)n4)ccc3C(=O)NS(=O)(=O)c3cccc(n3)N1)C(C)(C)C2` (single isomer, unassigned) [Compound 60, 12,12,17-trimethyl-8-(3-{2-[1-(trifluoromethyl)cyclopropyl]ethoxy}-1H-pyrazol-1-yl)-2λ^6-thia-3,9,11,18,23-pentaazatetracyclo[17.3.1.111,14.05,10]tetracosa-1(23),5(10),6,8,19,21-hexaene-2,2,4-trione], for which the EC50 is less than 1 µM and the “Max. Activity” value is on record as “+++ (+++ is >60%)”.
For the molecule `C[C@@H]1CC[C@H]2CN(c3nc(-n4ccc(OCCC5(C(F)(F)F)CC5)n4)ccc3C(=O)NS(=O)(=O)c3cccc(n3)N1)C(C)(C)C2` (single isomer, unassigned) [Compound 61, 12,12,17-trimethyl-8-(3-{2-[1-(trifluoromethyl)cyclopropyl]ethoxy}-1H-pyrazol-1-yl)-2λ^6-thia-3,9,11,18,23-pentaazatetracyclo[17.3.1.111,14.05,10]tetracosa-1(23),5(10),6,8,19,21-hexaene-2,2,4-trione], the EC50 is less than 1 µM and the “Max. Activity” value is “+++ (+++ is >60%)”.
With `CC1(C)C[C@H]2CCCCCNc3cccc(n3)S(=O)(=O)NC(=O)c3ccc(-n4ccc(OCCC5(C(F)(F)F)CC5)n4)nc3N1C2` (single isomer, unassigned) [Compound 63, 12,12-dimethyl-8-(3-{2-[1-(trifluoromethyl)cyclopropyl]ethoxy}-1H-pyrazol-1-yl)-2λ^6-thia-3,9,11,20,25-pentaazatetracyclo[19.3.1.111,14.05,10]hexacosa-1(24),5,7,9,21(25),22-hexaene-2,2,4-trione], the EC50 was less than 1 µM and the “Max. Activity” value is on record as “+++ (+++ is >60%)”.
As for `CC1(C)C[C@H]2CCCCCNc3cccc(n3)S(=O)(=O)NC(=O)c3ccc(-n4ccc(OCCC5(C(F)(F)F)CC5)n4)nc3N1C2` (single isomer, unassigned) [Compound 64, 12,12-dimethyl-8-(3-{2-[1-(trifluoromethyl)cyclopropyl]ethoxy}-1H-pyrazol-1-yl)-2λ^6-thia-3,9,11,20,25-pentaazatetracyclo[19.3.1.111,14.05,10]hexacosa-1(24),5,7,9,21(25),22-hexaene-2,2,4-trione], the EC50 is less than 1 µM and the “Max. Activity” value is reported as “++ (++ is 30-60%)”.
Turning to `CC1(C)C[C@H]2CCCCNc3ccc(cn3)S(=O)(=O)NC(=O)c3ccc(-n4ccc(OCCC5(C(F)(F)F)CC5)n4)nc3N1C2` (single isomer, unassigned) [Compound 67, 12,12-dimethyl-8-(3-{2-[1-(trifluoromethyl)cyclopropyl]ethoxy}-1H-pyrazol-1-yl)-2λ^6-thia-3,9,11,19,21-pentaazatetracyclo[18.2.2.111,14.05,10]pentacosa-1(23),5,7,9,20(24),21-hexaene-2,2,4-trione], the EC50 was less than 1 µM and the “Max. Activity” value is given as “+++ (+++ is >60%)”.
The like results for `CC1(C)C[C@H]2CCCCNc3ccc(cn3)S(=O)(=O)NC(=O)c3ccc(-n4ccc(OCCC5(C(F)(F)F)CC5)n4)nc3N1C2` (single isomer, unassigned) [Compound 68, 12,12-dimethyl-8-(3-{2-[1-(trifluoromethyl)cyclopropyl]ethoxy}-1H-pyrazol-1-yl)-2λ^6-thia-3,9,11,19,21-pentaazatetracyclo[18.2.2.111,14.05,10]pentacosa-1(23),5,7,9,20(24),21-hexaene-2,2,4-trione] were, in that order, less than 1 µM and “++ (++ is 30-60%)”.
Regarding `CC1(C)C[C@H]2CCCNc3ccc(cn3)S(=O)(=O)NC(=O)c3ccc(-n4ccc(OCCC5(C(F)(F)F)CC5)n4)nc3N1C2` (single isomer, unassigned) [Compound 72, 12,12-dimethyl-8-(3-{2-[1-(trifluoromethyl)cyclopropyl]ethoxy}-1H-pyrazol-1-yl)-2λ^6-thia-3,9,11,18,20-pentaazatetracyclo[17.2.2.111,14.05,10]tetracosa-1(22),5,7,9,19(23),20-hexaene-2,2,4-trione], the EC50 was greater than 3 µM and the “Max. Activity” value was “+ (+ is <30%)”.
With `CC1(C)C[C@H]2CCCNc3ccc(cn3)S(=O)(=O)NC(=O)c3ccc(-n4ccc(OCCC5(C(F)(F)F)CC5)n4)nc3N1C2` (single isomer, unassigned) [Compound 73, 12,12-dimethyl-8-(3-{2-[1-(trifluoromethyl)cyclopropyl]ethoxy}-1H-pyrazol-1-yl)-2λ^6-thia-3,9,11,18,20-pentaazatetracyclo[17.2.2.111,14.05,10]tetracosa-1(22),5,7,9,19(23),20-hexaene-2,2,4-trione], the EC50 is less than 1 µM and the “Max. Activity” value is “+++ (+++ is >60%)”.
For the molecule `CC1(C)C[C@@H]2CN1c1nc(-n3ccc(OCCC4(C(F)(F)F)CC4)n3)ccc1C(=O)NS(=O)(=O)c1cccc(n1)NCCO2` (single isomer, unassigned) [Compound 74, 12,12-Dimethyl-8-(3-{2-[1-(trifluoromethyl)cyclopropyl]ethoxy}-1H-pyrazol-1-yl)-15-oxa-2λ^6-thia-3,9,11,18,23-pentaazatetracyclo[17.3.1.111,14.05,10]tetracosa-1(22),5(10),6,8,19(23),20-hexaene-2,2,4-trione], the EC50 was 1 to 3 µM and the “Max. Activity” value was “+ (+ is <30%)”.

The values are drawn from patent US11866450B2, “Modulators of Cystic Fibrosis Transmembrane Conductance regulator, pharmaceutical compositions, methods of treatment, and process for making the modulators” (priority 2018, dated 2024).
